# Assay results taken from patent publication US20230000876A1, “TREATING CANCERS WITH A CYCLIN-DEPENDENT KINASE INHIBITOR” (Nuvation Bio Inc., priority 2021, published 2023).
# Like-named read-outs stand apart in the source and are kept apart here.
# How the values were obtained:
# U-118MG xenograft tumors = experiment: U-118MG glioma subcutaneous xenograft model; assay type: in vivo, female CB17 SCID mice; details: for T/C / TGI / Tumor Size: PG-D27
# Protocol: The tumor cells were routinely subcultured twice weekly. The cells growing in an exponential growth phase were harvested and counted for tumor inoculation.
# The treatments was started on day 7 after tumor inoculation when the average tumor volume reached 150 mm^3. 60 mice were selected and assigned into 6 groups. The testing articles were administrated to the mice according to Table 1.
# (§1) Tumor size was measured twice weekly in two dimensions using a caliper, and the volume was expressed in mm^3 using the formula: V=0.5 a×b^2 where a and b are the long and short diameters of the tumor, respectively. The tumor sizes are then used for the calculation of T/C and TGI values.
# (§2) The T/C value (in percent) is an indication of antitumor effectiveness; T and C are the mean volume of the treated and control groups, respectively, on a given day.
# (§3) TGI was calculated for each group using the formula: TGI (%)=[1−(Ti−T0)/(Vi−V0)]×100; Ti is the average tumor volume of a treatment group on PG-D28 T0 is the average tumor volume of the treatment group on the day of treatment start, Vi is the average tumor volume of the vehicle control group on the same day with Ti, and V0 is the average tumor volume of the vehicle group on the day of treatment start.
# All Groups were taken down on PG-D28, tumor, plasma and brain samples were collected.
# For statistical analysis for difference among groups 2-6 and group 1, a one-way ANOVA was performed. All the analysis were conducted using GraphPad Prism software. p<0.05 was considered to be statistically significant.
# MCF-7 tumors = assay type: in vivo; details: for T/C / TGI: PG-D37
# Protocol: The in vivo anti-tumor efficacy of the compound of formula (I) either alone or in combination with fulvestrant on MCF-7 breast tumor model on female Balb/c nude mice was assessed. MCF-7 cells are a breast cancer cell line that is HR+HER2−. See Booms et al., (2019) Cancer Epidemiol Biomarkers Prev 28(10); 1735-1745, which is hereby incorporated by reference.
# The study was in two parts. The first part was designed to measure tumor growth inhibition (TGI). The second part was used to measure pharmacokinetic and pharmacodynamic (PKPD) parameters. In the studies, the compound of formula (I) was dosed orally (po) and fulvestrant was dosed subcutaneously. […]
# The MCF-7 tumor cells were maintained in vitro in MEM supplemented with 10% heat inactivated fetal bovine serum at 37° C. in an atmosphere of 5% CO2 in air. The tumor cells were routinely subcultured twice weekly. The cells growing in an exponential growth phase were harvested and counted for tumor inoculation.
# Each mouse was inoculated subcutaneously at the right flank with MCF-7 (10*10^6) cells in 0.2 mL of PBS mixed with Matrigel (50:50) for tumor development. 17β-Estradiol (0.36 mg, 60-day release) pellets (Innovative Research of America Cat. No.: SE-121, pellet size: 3.0 mm) were implanted 2 days before cell inoculation.
# In TGI part, the treatments was started on day 7 after cell inoculation when the average tumor volume reaches 173 mm^3. 72 mice were selected and assigned into 9 groups. The testing articles were administrated to the mice according to Table 1.
# as §1, with “For TGI part, the major endpoint was to see if the tumor growth could be delayed or mice could be cured. Tumor” for “Tumor”
# as §2
# as §3, with “PG-Di,” for “PG-D28”
# For comparison among of tumor volume of groups 2-9 and group 1, a one-way ANOVA was performed. All the analysis were conducted using GraphPad Prism software. p<0.05 was considered to be statistically significant.
# [1] = Group 2: Compound (I) 10 mg/kg PO, QD
# [2] = Group 3: Compound (I) 30 mg/kg PO, QD
# [3] = Group 4: Compound (I) 60 mg/kg PO, QD
# [4] = Group 5: Compound (I) 60 mg/kg PO, QOD
smiles,measurement,setting,value
"CC(C)N1CCOc2c(F)cc(-c3nc(Nc4ccc(C5CCN(C)CC5)cn4)ncc3F)cc21 [Compound (I), 5-fluoro-4-(8-fluoro-4-isopropyl-3,4-dihydro-2H-benzo[b][1,4]oxazin-6-yl)-N-(5-(1-methylpiperidin-4-yl)pyridin-2-yl)pyrimidin-2-amine]",Tumor volume (mean ± SEM),"U-118MG xenograft tumors; 10 mg/kg PO QD, day 0",154 ± 12 mm^3
same,Tumor volume (mean ± SEM),"U-118MG xenograft tumors; 10 mg/kg PO QD, day 3",238 ± 16 mm^3
same,Tumor volume (mean ± SEM),"U-118MG xenograft tumors; 10 mg/kg PO QD, day 7",277 ± 20 mm^3
same,Tumor volume (mean ± SEM),"U-118MG xenograft tumors; 10 mg/kg PO QD, day 10",291 ± 28 mm^3
same,Tumor volume (mean ± SEM),"U-118MG xenograft tumors; 10 mg/kg PO QD, day 14",275 ± 28 mm^3
same,Tumor volume (mean ± SEM),"U-118MG xenograft tumors; 10 mg/kg PO QD, day 17",281 ± 34 mm^3
same,Tumor volume (mean ± SEM),"U-118MG xenograft tumors; 10 mg/kg PO QD, day 21",269 ± 43 mm^3
same,Tumor volume (mean ± SEM),"U-118MG xenograft tumors; 10 mg/kg PO QD, day 24",270 ± 40 mm^3
same,Tumor volume (mean ± SEM),"U-118MG xenograft tumors; 10 mg/kg PO QD, day 28",273 ± 39 mm^3
same,Tumor volume (mean ± SEM),"U-118MG xenograft tumors; 30 mg/kg PO QD, day 0",155 ± 11 mm^3
same,Tumor volume (mean ± SEM),"U-118MG xenograft tumors; 30 mg/kg PO QD, day 3",237 ± 22 mm^3
same,Tumor volume (mean ± SEM),"U-118MG xenograft tumors; 30 mg/kg PO QD, day 7",273 ± 26 mm^3
same,Tumor volume (mean ± SEM),"U-118MG xenograft tumors; 30 mg/kg PO QD, day 10",241 ± 25 mm^3
same,Tumor volume (mean ± SEM),"U-118MG xenograft tumors; 30 mg/kg PO QD, day 14",230 ± 19 mm^3
same,Tumor volume (mean ± SEM),"U-118MG xenograft tumors; 30 mg/kg PO QD, day 17",214 ± 16 mm^3
same,Tumor volume (mean ± SEM),"U-118MG xenograft tumors; 30 mg/kg PO QD, day 21",193 ± 17 mm^3
same,Tumor volume (mean ± SEM),"U-118MG xenograft tumors; 30 mg/kg PO QD, day 24",174 ± 19 mm^3
same,Tumor volume (mean ± SEM),"U-118MG xenograft tumors; 30 mg/kg PO QD, day 28",172 ± 18 mm^3
same,Tumor volume (mean ± SEM),"U-118MG xenograft tumors; 60 mg/kg PO QD, day 0",156 ± 12 mm^3
same,Tumor volume (mean ± SEM),"U-118MG xenograft tumors; 60 mg/kg PO QD, day 3",220 ± 17 mm^3
same,Tumor volume (mean ± SEM),"U-118MG xenograft tumors; 60 mg/kg PO QD, day 7",264 ± 14 mm^3
same,Tumor volume (mean ± SEM),"U-118MG xenograft tumors; 60 mg/kg PO QD, day 10",227 ± 10 mm^3
same,Tumor volume (mean ± SEM),"U-118MG xenograft tumors; 60 mg/kg PO QD, day 14",202 ± 10 mm^3
same,Tumor volume (mean ± SEM),"U-118MG xenograft tumors; 60 mg/kg PO QD, day 17",174 ± 12 mm^3
same,Tumor volume (mean ± SEM),"U-118MG xenograft tumors; 60 mg/kg PO QD, day 21",160 ± 10 mm^3
same,Tumor volume (mean ± SEM),"U-118MG xenograft tumors; 60 mg/kg PO QD, day 24",156 ± 8 mm^3
same,Tumor volume (mean ± SEM),"U-118MG xenograft tumors; 60 mg/kg PO QD, day 28",156 ± 8 mm^3
same,Tumor volume (mean ± SEM),"U-118MG xenograft tumors; 60 mg/kg PO QOD, day 0",154 ± 11 mm^3
same,Tumor volume (mean ± SEM),"U-118MG xenograft tumors; 60 mg/kg PO QOD, day 3",233 ± 20 mm^3
same,Tumor volume (mean ± SEM),"U-118MG xenograft tumors; 60 mg/kg PO QOD, day 7",304 ± 27 mm^3
same,Tumor volume (mean ± SEM),"U-118MG xenograft tumors; 60 mg/kg PO QOD, day 10",273 ± 28 mm^3
same,Tumor volume (mean ± SEM),"U-118MG xenograft tumors; 60 mg/kg PO QOD, day 14",234 ± 22 mm^3
same,Tumor volume (mean ± SEM),"U-118MG xenograft tumors; 60 mg/kg PO QOD, day 17",215 ± 22 mm^3
same,Tumor volume (mean ± SEM),"U-118MG xenograft tumors; 60 mg/kg PO QOD, day 21",193 ± 20 mm^3
same,Tumor volume (mean ± SEM),"U-118MG xenograft tumors; 60 mg/kg PO QOD, day 24",183 ± 21 mm^3
same,Tumor volume (mean ± SEM),"U-118MG xenograft tumors; 60 mg/kg PO QOD, day 28",177 ± 22 mm^3
same,T/C,U-118MG xenograft tumors; [1],43.20%
same,TGI,U-118MG xenograft tumors; [1],75.08%
same,Tumor Size,U-118MG xenograft tumors; [1],273 ± 39 mm^3
same,T/C,U-118MG xenograft tumors; [2],27.32%
same,Tumor Size,U-118MG xenograft tumors; [2],172 ± 18 mm^3
same,T/C,U-118MG xenograft tumors; [3],24.64%
same,TGI,U-118MG xenograft tumors; [3],100.03%
same,Tumor Size,U-118MG xenograft tumors; [3],156 ± 8 mm^3
same,T/C,U-118MG xenograft tumors; [4],28.09%
same,TGI,U-118MG xenograft tumors; [4],95.14%
same,Tumor Size,U-118MG xenograft tumors; [4],177 ± 22 mm^3
same,Antitumor activity relative to the control group,"U-118MG xenograft tumors; mouse, in vivo",dose-dependent and statistically significant antitumor activity
same,Effect of 30 mg/kg QD compared with 60 mg/kg QOD,"U-118MG xenograft tumors; mouse, in vivo",similar
same,Tumor volume (mean ± SEM),"MCF-7 tumors; 10 mg/kg PO QD, day 0",173 ± 12 mm^3
same,Tumor volume (mean ± SEM),"MCF-7 tumors; 10 mg/kg PO QD, day 3",195 ± 14 mm^3
same,Tumor volume (mean ± SEM),"MCF-7 tumors; 10 mg/kg PO QD, day 6",188 ± 25 mm^3
same,Tumor volume (mean ± SEM),"MCF-7 tumors; 10 mg/kg PO QD, day 9",185 ± 15 mm^3
same,Tumor volume (mean ± SEM),"MCF-7 tumors; 10 mg/kg PO QD, day 13",179 ± 21 mm^3
same,Tumor volume (mean ± SEM),"MCF-7 tumors; 10 mg/kg PO QD, day 16",187 ± 22 mm^3
same,Tumor volume (mean ± SEM),"MCF-7 tumors; 10 mg/kg PO QD, day 20",228 ± 36 mm^3
same,Tumor volume (mean ± SEM),"MCF-7 tumors; 10 mg/kg PO QD, day 23",268 ± 37 mm^3
same,Tumor volume (mean ± SEM),"MCF-7 tumors; 10 mg/kg PO QD, day 27",310 ± 56 mm^3
same,Tumor volume (mean ± SEM),"MCF-7 tumors; 10 mg/kg PO QD, day 30",358 ± 60 mm^3
same,Tumor volume (mean ± SEM),"MCF-7 tumors; 10 mg/kg PO QD, day 34",446 ± 93 mm^3
same,Tumor volume (mean ± SEM),"MCF-7 tumors; 10 mg/kg PO QD, day 37",505 ± 116 mm^3
same,Tumor volume (mean ± SEM),"MCF-7 tumors; 10 mg/kg PO QD, day 41",530 ± 113 mm^3
same,Tumor volume (mean ± SEM),"MCF-7 tumors; 10 mg/kg PO QD, day 44",468 ± 99 mm^3
same,Tumor volume (mean ± SEM),"MCF-7 tumors; 10 mg/kg PO QD, day 48",472 ± 120 mm^3
same,T/C,MCF-7 tumors; 10 mg/kg QD,25.18%
same,TGI,MCF-7 tumors; 10 mg/kg QD,81.88%
same,Tumor volume (mean ± SEM),"MCF-7 tumors; 30 mg/kg PO QD, day 0",173 ± 11 mm^3
same,Tumor volume (mean ± SEM),"MCF-7 tumors; 30 mg/kg PO QD, day 3",192 ± 16 mm^3
same,Tumor volume (mean ± SEM),"MCF-7 tumors; 30 mg/kg PO QD, day 6",151 ± 24 mm^3
same,Tumor volume (mean ± SEM),"MCF-7 tumors; 30 mg/kg PO QD, day 9",153 ± 19 mm^3
same,Tumor volume (mean ± SEM),"MCF-7 tumors; 30 mg/kg PO QD, day 13",147 ± 17 mm^3
same,Tumor volume (mean ± SEM),"MCF-7 tumors; 30 mg/kg PO QD, day 16",154 ± 18 mm^3
same,Tumor volume (mean ± SEM),"MCF-7 tumors; 30 mg/kg PO QD, day 20",159 ± 21 mm^3
same,Tumor volume (mean ± SEM),"MCF-7 tumors; 30 mg/kg PO QD, day 23",175 ± 23 mm^3
same,Tumor volume (mean ± SEM),"MCF-7 tumors; 30 mg/kg PO QD, day 27",168 ± 25 mm^3
same,Tumor volume (mean ± SEM),"MCF-7 tumors; 30 mg/kg PO QD, day 30",186 ± 28 mm^3
same,Tumor volume (mean ± SEM),"MCF-7 tumors; 30 mg/kg PO QD, day 34",193 ± 34 mm^3
same,Tumor volume (mean ± SEM),"MCF-7 tumors; 30 mg/kg PO QD, day 37",227 ± 41 mm^3
same,Tumor volume (mean ± SEM),"MCF-7 tumors; 30 mg/kg PO QD, day 41",228 ± 51 mm^3
same,Tumor volume (mean ± SEM),"MCF-7 tumors; 30 mg/kg PO QD, day 44",234 ± 52 mm^3
same,Tumor volume (mean ± SEM),"MCF-7 tumors; 30 mg/kg PO QD, day 48",206 ± 39 mm^3
same,T/C,MCF-7 tumors; 30 mg/kg QD,11.32%
same,TGI,MCF-7 tumors; 30 mg/kg QD,97.06%
same,Toxicity (body weight as indirect measurement),"MCF-7 tumors; MCF-7 tumor-bearing mice, 10 or 30 mg/kg PO QD, alone or with fulvestrant, 49 days",not toxic
